Measured values: patent US7473541B2, “Identification, cloning, expression, and purification of three novel human calcium-independent phospholipase A2 family members possessing triacylglycerol lipase and acylglycerol transacylase activities” (priority 2004, dated 2009)

Tests used:
[1] = molecular target: iPLA2epsilon, iPLA2zeta, and iPLA2eta; test: Triglyceride lipase activity inhibition, summary over the three isoforms; format: biochemical, human; conditions: range over iPLA2epsilon, zeta, eta; read-out: IC50, triglyceride lipase activity of each of the three isoforms
Description: (§1) Assay for Triolein Lipase Activity—Sample fractions were incubated in 85 mM potassium phosphate, pH 7.0 containing 2 mM EDTA and 2 mM DTT for 15 min at 37° C. in the presence of a suspension of 100 microM [9,10-^3H(N)]-triolein (100 microCi/micromol) in 25 microM egg yolk lecithin, and 100 microM sodium taurocholate. In some reactions, BEL was added at the indicated concentrations and incubated with enzyme at room temperature for 3 min prior to the addition of radiolabeled substrate. After extraction of radiolabeled reaction products and remaining substrate into butanol, samples were spotted on TLC plates, overlaid with oleic acid standard, dried, and developed in chloroformlmethanol/NH4OH (65:25:5). The region of the plate corresponding to the oleic acid standard (visualized by iodine staining) was scraped into scintillation vials and quantified by liquid scintillation spectrometry.

iPLA2gamma = molecular target: T1, iPLA2gamma (Homo sapiens, UniProt Q9NP80); conditions: previously demonstrated (refs 37-39); cited from earlier work
T1 sequence (Q9NP80 1-782): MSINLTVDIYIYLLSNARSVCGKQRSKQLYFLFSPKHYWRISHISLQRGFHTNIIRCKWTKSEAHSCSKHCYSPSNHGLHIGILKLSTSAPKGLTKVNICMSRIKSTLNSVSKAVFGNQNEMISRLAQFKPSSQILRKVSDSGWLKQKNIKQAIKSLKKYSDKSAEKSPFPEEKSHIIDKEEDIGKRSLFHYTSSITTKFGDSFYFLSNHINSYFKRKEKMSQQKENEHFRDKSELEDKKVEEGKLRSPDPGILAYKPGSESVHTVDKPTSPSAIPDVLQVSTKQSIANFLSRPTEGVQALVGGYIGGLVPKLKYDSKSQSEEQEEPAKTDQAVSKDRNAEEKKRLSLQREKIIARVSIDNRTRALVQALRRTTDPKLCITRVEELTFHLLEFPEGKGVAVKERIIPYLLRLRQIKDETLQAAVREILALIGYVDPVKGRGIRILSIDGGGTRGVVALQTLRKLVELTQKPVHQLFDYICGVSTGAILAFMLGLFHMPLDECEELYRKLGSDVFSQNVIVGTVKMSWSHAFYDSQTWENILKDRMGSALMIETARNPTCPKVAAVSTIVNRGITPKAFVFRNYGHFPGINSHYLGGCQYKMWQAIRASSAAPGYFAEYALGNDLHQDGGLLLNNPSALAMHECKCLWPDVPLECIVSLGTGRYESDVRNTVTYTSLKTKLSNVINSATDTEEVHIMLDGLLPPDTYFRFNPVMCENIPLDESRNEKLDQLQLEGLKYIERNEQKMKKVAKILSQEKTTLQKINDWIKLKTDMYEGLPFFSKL

iPLA2beta = molecular target: T2, iPLA2beta (Homo sapiens, UniProt O60733); conditions: previously demonstrated (refs 37-39); cited from earlier work
T2 sequence (O60733 1-806): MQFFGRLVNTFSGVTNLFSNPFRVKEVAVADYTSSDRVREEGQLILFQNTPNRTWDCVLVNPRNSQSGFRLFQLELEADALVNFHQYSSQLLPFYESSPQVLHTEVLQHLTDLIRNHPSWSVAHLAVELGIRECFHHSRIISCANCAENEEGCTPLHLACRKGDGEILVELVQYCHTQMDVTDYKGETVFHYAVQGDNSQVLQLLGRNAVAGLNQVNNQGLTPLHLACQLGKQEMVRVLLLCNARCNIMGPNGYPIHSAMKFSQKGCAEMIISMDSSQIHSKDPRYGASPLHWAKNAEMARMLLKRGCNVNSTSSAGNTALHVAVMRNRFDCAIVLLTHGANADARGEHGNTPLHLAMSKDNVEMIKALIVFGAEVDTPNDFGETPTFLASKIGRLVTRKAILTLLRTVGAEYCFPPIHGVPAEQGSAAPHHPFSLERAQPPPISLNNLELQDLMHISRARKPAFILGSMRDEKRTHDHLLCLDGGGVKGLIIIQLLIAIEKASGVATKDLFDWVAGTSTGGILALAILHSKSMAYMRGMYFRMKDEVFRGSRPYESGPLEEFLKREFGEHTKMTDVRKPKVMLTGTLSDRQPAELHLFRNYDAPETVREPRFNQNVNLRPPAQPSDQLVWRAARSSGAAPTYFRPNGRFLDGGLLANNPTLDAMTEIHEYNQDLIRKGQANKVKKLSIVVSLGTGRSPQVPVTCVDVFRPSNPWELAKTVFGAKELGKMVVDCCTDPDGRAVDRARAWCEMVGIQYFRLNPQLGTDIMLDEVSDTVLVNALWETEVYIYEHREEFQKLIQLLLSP

iPLA2zeta = molecular target: T3, iPLA2zeta (Homo sapiens, UniProt Q96AD5, L481P); test: Triolein lipase activity inhibition by BEL; format: biochemical; conditions: pre-incubated with 0.1-2 microM BEL prior to substrate
T3 construct: Full-length human iPLA2zeta (TTS-2.2) and iPLA2eta (GS2) were amplified by PCR; made in house; host or cells: Sf9 insect cells (baculovirus)
T3 sequence (Q96AD5 with tags, fused parts or gaps L481P): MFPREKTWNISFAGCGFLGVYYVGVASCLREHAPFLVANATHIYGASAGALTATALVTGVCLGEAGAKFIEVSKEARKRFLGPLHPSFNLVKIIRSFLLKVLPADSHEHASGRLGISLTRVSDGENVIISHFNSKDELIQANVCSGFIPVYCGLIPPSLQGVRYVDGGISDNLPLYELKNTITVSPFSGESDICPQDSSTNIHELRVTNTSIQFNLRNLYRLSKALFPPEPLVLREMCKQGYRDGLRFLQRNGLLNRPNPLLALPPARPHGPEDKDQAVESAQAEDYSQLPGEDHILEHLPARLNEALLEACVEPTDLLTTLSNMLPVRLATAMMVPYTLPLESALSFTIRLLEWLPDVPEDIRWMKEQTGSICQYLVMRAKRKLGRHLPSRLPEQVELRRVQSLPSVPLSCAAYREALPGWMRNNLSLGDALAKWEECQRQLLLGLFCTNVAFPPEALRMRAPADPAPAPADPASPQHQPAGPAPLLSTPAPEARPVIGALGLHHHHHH
Description: as §1
(§2) To determine whether the three new iPLA2 family members were inhibitable by BEL, each enzyme was pre-incubated with 0.1-2 microM BEL or ethanol vehicle alone prior to measuring triolein lipase activity (FIG. 5). […] Considering the hydrophobic nature of the acyl-glycerol substrates of iPLA2epsilon, iPLA2zeta, and iPLA2eta identified herein, it is not surprising that BEL would have access to the active sites of these enzymes.

iPLA2eta = molecular target: T4, iPLA2eta (Homo sapiens, UniProt P41247); test: Triolein lipase activity inhibition by BEL; format: biochemical; conditions: pre-incubated with 0.1-2 microM BEL prior to substrate
T4 construct: Full-length human iPLA2zeta (TTS-2.2) and iPLA2eta (GS2) were amplified by PCR; made in house; host or cells: Sf9 insect cells (baculovirus)
T4 sequence (P41247 1-253): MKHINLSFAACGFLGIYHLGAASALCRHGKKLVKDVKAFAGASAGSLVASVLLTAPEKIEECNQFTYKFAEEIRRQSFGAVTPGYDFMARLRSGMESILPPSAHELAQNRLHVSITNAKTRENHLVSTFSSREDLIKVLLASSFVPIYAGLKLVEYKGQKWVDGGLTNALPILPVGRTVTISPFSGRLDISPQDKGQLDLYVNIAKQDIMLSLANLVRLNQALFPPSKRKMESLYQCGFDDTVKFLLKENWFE
Description: as §1, §2

iPLA2epsilon = molecular target: T5, iPLA2epsilon (Homo sapiens, UniProt Q9NST1, K434E); test: Triolein lipase activity inhibition by BEL; format: biochemical; conditions: pre-incubated with 0.1-2 microM BEL prior to substrate
T5 construct: used as a template for PCR to obtain full-length CDNA for iPLA2epsilon; made in house; host or cells: Sf9 insect cells (baculovirus)
T5 sequence (Q9NST1 with tags, fused parts or gaps K434E): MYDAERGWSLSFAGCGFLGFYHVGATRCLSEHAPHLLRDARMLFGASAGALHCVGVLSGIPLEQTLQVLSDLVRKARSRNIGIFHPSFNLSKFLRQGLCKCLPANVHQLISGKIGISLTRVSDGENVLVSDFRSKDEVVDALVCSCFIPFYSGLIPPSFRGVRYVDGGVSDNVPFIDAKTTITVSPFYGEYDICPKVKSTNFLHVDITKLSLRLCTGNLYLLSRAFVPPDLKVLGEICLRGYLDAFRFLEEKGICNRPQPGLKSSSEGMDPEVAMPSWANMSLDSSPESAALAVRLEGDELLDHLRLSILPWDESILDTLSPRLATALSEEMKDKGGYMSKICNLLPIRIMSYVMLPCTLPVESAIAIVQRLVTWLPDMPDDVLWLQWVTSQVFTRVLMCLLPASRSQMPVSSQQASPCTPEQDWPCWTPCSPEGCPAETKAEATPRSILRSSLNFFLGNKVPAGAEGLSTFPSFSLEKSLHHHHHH
Description: as §1, §2

IC50 [1]: 100 to 500 nM | IC50 (iPLA2zeta): ~500 nM | IC50 (iPLA2eta): ~100 nM | IC50 (iPLA2epsilon): ~100 nM
Compound: O=C1O/C(=C/Br)CCC1c1cccc2ccccc12 (stereo not drawn) [BEL, (E)-6-(bromomethylene)-3-(1-naphthalenyl)-2H-tetrahydropyran-2-one]
inhibition of iPLA2gamma activity (iPLA2gamma): sub to low micromolar concentrations | inhibition of iPLA2beta activity (iPLA2beta): sub to low micromolar concentrations
